# Results: patent US20200121706A1, “METHOD FOR INHIBITING MYOPIA AND APPLICATION IN PREPARING DRUG” (WENZHOU MEDICAL UNIVERSITY, priority 2017, published 2020)
# How the values were obtained:
# Assay type in all cases: in vivo, Cavia porcellus
# [1] = tested on: form-deprivation myopia; experiment: Monocular form-deprivation (FD) myopia model, periocular injection; diopter by eccentric infrared photo-refractor, ocular axis parameters by A-mode ultrasound; settings: guinea pig FD eyes, daily periocular injection, after 4 weeks
# Description: (§1) The experimental animals used in this experiment were 3-week-old British shorthair three-colored guinea pigs (Cavia porcellus). Mask technique was used as a model of monocular form-deprivation (FD) myopia. In the myopic sclera HIF-1α expression experiment, the animals were randomly divided into three groups: the normal control group, FD 1 week group, and FD 1 week & 2-day recovery group. […] In the administration experiment, HIF-1α inhibitors salidroside and formononetin were administered to the form-deprived eyes by periocular injection to inhibit HIF-1α activity. The animals in the salidroside injection experiment were randomly divided into three groups: form-deprivation+solvent control group (FD+0.9% normal saline (NS)), form-deprivation+low concentration drug group (FD+SDS 1 μg), and form-deprivation+high concentration drug group (FD+SDS 10 μg). The animals in the formononetin injection experiment were randomly divided into three groups: form-deprivation+solvent control group (FD+DMSO), form-deprivation+low concentration drug group (FD+FMN 0.5 μg), and form-deprivation+high concentration drug group (FD+FMN 5 μg). Periocular injection of drugs was performed daily at 9 am for 4 weeks without treatment of the contralateral eyes. Before the experiment and after 2 weeks and 4 weeks of administration respectively, the diopter was measured with an eccentric infrared photo-refractor (EIR), and the ocular axis parameters such as vitreous chamber depth and ocular axis length were measured with amplitude-mode ultrasound (11 MHz). After the administration, the sclera was removed and the expression of HIF-1α and collagen type I were detected by Western Blot.
# [2] = tested on: scleral hypoxia-inducible factor-1α (HIF-1α); experiment: Western Blot of scleral HIF-1α after administration in form-deprived eyes; settings: sclera removed after administration
# Description: as §1, with “The animals in the formononetin injection experiment were randomly divided into three groups: form-deprivation+solvent control group (FD+DMSO), form-deprivation+low concentration drug group (FD+FMN 0.5 μg), and form-deprivation+high concentration drug group (FD+FMN 5 μg). Periocular injection of drugs was performed daily at 9 am for 4 weeks without treatment of the contralateral eyes.” left out
# [3] = tested on: collagen type I; experiment: Western Blot of scleral collagen type I after administration in form-deprived eyes; settings: sclera removed after administration
# Description: as §1, with “The animals in the formononetin injection experiment were randomly divided into three groups: form-deprivation+solvent control group (FD+DMSO), form-deprivation+low concentration drug group (FD+FMN 0.5 μg), and form-deprivation+high concentration drug group (FD+FMN 5 μg). Periocular injection of drugs was performed daily at 9 am for 4 weeks without treatment of the contralateral eyes.” left out
smiles,measurement,setting,value
OC[C@H]1O[C@@H](OCCc2ccc(O)cc2)[C@H](O)[C@@H](O)[C@@H]1O [salidroside],extension of ocular axis (ocular axis length difference) compared with solvent-injection group,[1],relatively smaller
same,extension of vitreous chamber (vitreous chamber depth difference) compared with solvent-injection group,[1],relatively smaller
same,myopia formation (diopter difference between experimental eyes and contralateral eyes) compared with form-deprivation solvent-injection group,[1],significantly reduced
same,up-regulation of HIF-1α expression in the sclera of FDM eyes,[2],inhibited
same,down-regulation of collagen (type I) expression in the sclera of FDM eyes,[3],inhibited
